In US20260109699A1, “AZOLE DERIVATIVES AS SHP2 INHIBITORS” (IRBM S.P.A., priority 2022, published 2026):

Columns and labels:
[1] = target: T1, recombinant SHP2 protein (AviTag-G4SG4S-SHP2(1-525)) (Homo sapiens, UniProt Q06124); experiment: Binding kinetic assay by surface plasmon resonance (SPR); settings: for Residence time 1/koff SPR: 1/koff from SPR; for koff: Biacore T200, single cycle kinetic, 25° C, 1:1 Langmuir model
T1 construct: recombinant SHP2 protein (AviTag-G4SG4S-SHP2(1-525)); purchased VIVA Biotech Ltd (custom production)
T1 sequence (Q06124 1-525): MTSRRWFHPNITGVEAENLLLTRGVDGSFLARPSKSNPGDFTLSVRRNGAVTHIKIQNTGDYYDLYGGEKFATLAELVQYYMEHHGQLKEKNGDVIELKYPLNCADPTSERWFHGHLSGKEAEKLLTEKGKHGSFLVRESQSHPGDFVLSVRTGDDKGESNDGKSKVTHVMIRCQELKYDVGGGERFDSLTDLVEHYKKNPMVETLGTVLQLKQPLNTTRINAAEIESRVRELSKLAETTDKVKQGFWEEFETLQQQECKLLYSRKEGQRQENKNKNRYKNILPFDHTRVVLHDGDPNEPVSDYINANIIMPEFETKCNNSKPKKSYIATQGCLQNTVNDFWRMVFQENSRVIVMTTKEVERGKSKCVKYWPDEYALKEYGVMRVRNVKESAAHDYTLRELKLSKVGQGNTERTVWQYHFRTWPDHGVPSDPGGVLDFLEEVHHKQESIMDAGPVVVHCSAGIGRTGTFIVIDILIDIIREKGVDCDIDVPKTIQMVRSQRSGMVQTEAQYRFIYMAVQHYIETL
Procedure: A N-term biotinylated recombinant SHP2 protein (AviTag-G4SG4S-SHP2(1-525)) was custom produced by VIVA Biotech Ltd. Binding kinetic rate constants were measured by SPR, using a Biacore T200 instrument. The recombinant SHP2 protein was diluted at […] in HBS-P+ buffer, then captured on a series S streptavidin sensor chip up to 5000 RU. Binding of compounds was assessed by a single cycle kinetic procedure (SCK): compounds were diluted in HBS-EP+ supplemented with 20% DMSO (from 300 to 3.7 nM, 3 fold dilution), injected for 120 s over the ligand, then dissociation rate measured for 3600 s, at […] and 25° C. Sensorgrams were analysed by Biacore T200 evaluation software: binding rate constants (kon, koff) and affinity (KD) were calculated by curve filling according to a 1:1 Langmuir model. Each molecule was tested in triplicate on separate flow channels.

[2] = system: phospho-ERK1/2 (Thr202/Tyr204); experiment: Phospho-ERK cellular assay; format: cell-based; settings: Homo sapiens; KYSE-520 cells, 2 h at 37° C, TR-FRET; read-out: pERK IC50
How it was run: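 KYSE-520 cells treated overnight-after-plating with serially diluted compounds for 2 h at 37° C, then lysed. Phospho-ERK1/2 measured by TR-FRET after overnight antibody incubation at rt; inhibition normalized between DMSO (0%) and no-cell (100%) wells, IC50 from four-parameter logistic fit.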

[3] = target: T2, SHP-2 enzyme (Met1-Leu525), SHP2wt (Homo sapiens, UniProt Q06124); experiment: SHP2 inhibition enzymatic assay; format: biochemical; settings: 0.5 nM SHP-2 activated by 500 nM IRS1 peptide, 75 μM DiFMUP substrate
T2 construct: synthetized by Origene, Met1-Leu525, cat #TP750155; purchased Origene TP750155
T2 sequence (Q06124 1-525): T1 sequence (Q06124 1-525)
How it was run: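 Human SHP2 (Met1-Leu525, 0.5 nM) activated by 500 nM bis-phosphorylated IRS1 peptide, pre-incubated 30 min with compound, then 75 μM DiFMUP for 30 min at rt in HEPES pH 7.2, NaCl/KCl, EDTA, Tween-20, 5 mM DTT. Reaction quenched with bpV, fluorescence read; IC50 by four-parameter logistic fit.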

[4] = Determination of brain penetration in SD rats; format: in vivo; settings: Sprague-Dawley (SD), rat; male SD rats, IV 0.2 mg/kg, unbound brain to plasma ratio at 8 h; read-out: Kpuu, brain
Procedure: Total brain levels, expressed as brain/plasma ratio (Kp,brain) were measured by Cbrain@8h/Cplasma@8h in SD rats after IV administration (see Pharmaceutical Research, Vol. 25, No. 8, August 2008 DOI: 10.1007/s11095-007-9502-2; Pharmaceutical Research (2022) 39:1321-1341 https://doi.org/10.1007/s11095-022-03246-6). Unbound fraction of each molecule in biological matrix was determined by in vitro plasma and brain binding assay. Kpuu, brain was calculated by the following equation: […]
In vitro plasma and brain binding assay was carried out on a RED (Rapid Equilibrium Dialysis) device. Unbound fraction (fu) of each molecule in the brain homogenate and plasma were calculated by the ratio of the buffer side response to the brain homogenate/plasma side response. An IV study design was used as the in vivo screening model to identify brain penetration of each molecule. Male naïve SD rats (n=3) were intravenously dosed with each molecule at 0.2 mg/kg in DMSO/Propylene Glycol/Water, 20:60:20 (v/v/v). At 0.083, 0.25, 0.5, 1, 2, 4, and 8 h post-dose plasma samples were collected via tail vein and brain tissue was harvested at the 8 h time point and homogenized in 3× volume of water. All samples were stored at ˜−80° C. prior to LC/MS/MS analysis. At the 8 h time point, the unbound brain to plasma ratios were generated to identify molecules with Kpuu, brain values>0.3 which is indicative of good passive brain penetration.

Structure (SMILES) | Residence time 1/koff SPR [1] [s] | koff [1] [s⁻¹] | IC50 [2] [nM] | IC50 [3] [nM] | Kp uu at 8 h [4]
Cc1c(N2CCC3(CC2)Cn2nccc2[C@H]3N)nc(C)n(-c2cccc(Cl)c2Cl)c1=O (single isomer, unassigned) [Example 3] | 8065 | 0.000124 | < 100 | ≤ 50 | > 0.3
N[C@@H]1c2ccnn2CC12CCN(c1cnc(Oc3cccc(Cl)c3Cl)cn1)CC2 [Example 2, (S)-1-(5-(2,3-dichlorophenoxy)pyrazin-2-yl)-4′H,6′H-spiro[piperidine-4,5′-pyrrolo[1,2-b]pyrazol]-4′-amine] | 1944 | 0.000514 | 100 to 500 | ≤ 50 | > 0.3
N[C@@H]1c2ccnn2CC12CCN(c1cnc(Sc3cccc(-n4cccn4)c3Cl)cn1)CC2 [Example 10, (S)-1-(5-((2-chloro-3-(1H-pyrazol-1-yl)phenyl)thio)pyrazin-2-yl)-4′H,6′H-spiro[piperidine-4,5′-pyrrolo[1,2-b]pyrazol]-4′-amine] | 90909 | 1.1e-05 | < 100 | ≤ 50 | > 0.3
Cc1c(F)ccc(Sc2cnc(N3CCC4(CC3)Cn3nccc3[C@H]4N)cn2)c1F [Example 45, (S)-1-(5-((2,4-difluoro-3-methylphenyl)thio)pyrazin-2-yl)-4′H,6′H-spiro[piperidine-4,5′-pyrrolo[1,2-b]pyrazol]-4′-amine] | 12664 | 7.9e-05 | < 100 | ≤ 50 | 
N[C@@H]1c2ccnn2CC12CCN(c1cnc(Sc3ccc(Cl)c4ncccc34)cn1)CC2 [Example 70, (S)-1-(5-((8-chloroquinolin-5-yl)thio)pyrazin-2-yl)-4′H,6′H-spiro[piperidine-4,5′-pyrrolo[1,2-b]pyrazol]-4′-amine] |  |  | < 100 | ≤ 50 | 
N[C@@H]1c2ccnn2CC12CCN(c1cnc(Sc3cccc(F)c3C(F)F)cn1)CC2 [Example 71, (S)-1-(5-((2-(difluoromethyl)-3-fluorophenyl)thio)pyrazin-2-yl)-4′H,6′H-spiro[piperidine-4,5′-pyrrolo[1,2-b]pyrazol]-4′-amine] |  |  | < 100 | ≤ 50 | 
N[C@@H]1c2ccnn2CC12CCN(c1cnc(Sc3ccccc3C(F)F)cn1)CC2 [Example 72, (S)-1-(5-((2-(difluoromethyl)phenyl)thio)pyrazin-2-yl)-4′H,6′H-spiro[piperidine-4,5′-pyrrolo[1,2-b]pyrazol]-4′-amine] |  |  | < 100 | ≤ 50 | 
N[C@@H]1c2ccnn2CC12CCN(c1cnc(Sc3ccc(OC(F)F)c4ncccc34)cn1)CC2 [Example 73, (S)-1-(5-((8-(difluoromethoxy)quinolin-5-yl)thio)pyrazin-2-yl)-4′H,6′H-spiro[piperidine-4,5′-pyrrolo[1,2-b]pyrazol]-4′-amine] |  |  | < 100 | ≤ 50 | 
N[C@@H]1c2ccnn2CC12CCN(c1cnc(Sc3cc(C(F)F)ccc3F)cn1)CC2 [Example 74, (S)-1-(5-((5-(difluoromethyl)-2-fluorophenyl)thio)pyrazin-2-yl)-4′H,6′H-spiro[piperidine-4,5′-pyrrolo[1,2-b]pyrazol]-4′-amine] |  |  | 100 to 500 | ≤ 50 | 
N[C@@H]1c2ccnn2CC12CCN(c1cnc(Sc3c(F)cccc3F)cn1)CC2 [Example 75, (S)-1-(5-((2,6-difluorophenyl)thio)pyrazin-2-yl)-4′H,6′H-spiro[piperidine-4,5′-pyrrolo[1,2-b]pyrazol]-4′-amine] |  |  | < 100 | ≤ 50 | 
N#Cc1ccc(Sc2cnc(N3CCC4(CC3)Cn3nccc3[C@H]4N)cn2)c(F)c1 [Example 76, (S)-4-((5-(4′-amino-4′H,6′H-spiro[piperidine-4,5′-pyrrolo[1,2-b]pyrazol]-1-yl)pyrazin-2-yl)thio)-3-fluorobenzonitrile] |  |  | < 100 | ≤ 50 | 
N[C@@H]1c2ccnn2CC12CCN(c1cnc(Sc3cc(F)c(F)cc3F)cn1)CC2 [Example 77, (S)-1-(5-((2,4,5-trifluorophenyl)thio)pyrazin-2-yl)-4′H,6′H-spiro[piperidine-4,5′-pyrrolo[1,2-b]pyrazol]-4′-amine] |  |  | 100 to 500 | ≤ 50 | 
N[C@@H]1c2ccnn2CC12CCN(c1cnc(Oc3ccccc3F)cn1)CC2 [Example 78, (S)-1-(5-(2-fluorophenoxy)pyrazin-2-yl)-4′H,6′H-spiro[piperidine-4,5′-pyrrolo[1,2-b]pyrazol]-4′-amine] |  |  | 100 to 500 | ≤ 50 | 
N[C@@H]1c2ccnn2CC12CCN(c1cnc(Oc3ccc(Cl)cc3F)cn1)CC2 [Example 79, (S)-1-(5-(4-chloro-2-fluorophenoxy)pyrazin-2-yl)-4′H,6′H-spiro[piperidine-4,5′-pyrrolo[1,2-b]pyrazol]-4′-amine] |  |  | 100 to 500 | ≤ 50 | 
N[C@@H]1c2ccnn2CC12CCN(c1cnc(Sc3cccc(F)c3-n3cccn3)cn1)CC2 [Example 80, (S)-1-(5-((3-fluoro-2-(1H-pyrazol-1-yl)phenyl)thio)pyrazin-2-yl)-4′H,6′H-spiro[piperidine-4,5′-pyrrolo[1,2-b]pyrazol]-4′-amine] |  |  | 100 to 500 | ≤ 50 | 
N[C@@H]1c2ccnn2CC12CCN(c1cnc(Sc3cccc(-n4cccn4)c3F)cn1)CC2 [Example 81, (S)-1-(5-((2-fluoro-3-(1H-pyrazol-1-yl)phenyl)thio)pyrazin-2-yl)-4′H,6′H-spiro[piperidine-4,5′-pyrrolo[1,2-b]pyrazol]-4′-amine] |  |  | < 100 | ≤ 50 | 
N[C@@H]1c2ccnn2CC12CCN(c1cnc(Sc3cccc(-n4ccnc4C(F)F)c3Cl)cn1)CC2 [Example 82, (S)-1-(5-((2-chloro-3-(2-(difluoromethyl)-1H-imidazol-1-yl)phenyl)thio)pyrazin-2-yl)-4′H,6′H-spiro[piperidine-4,5′-pyrrolo[1,2-b]pyrazol]-4′-amine] |  |  | < 100 | ≤ 50 | 
Cn1cc2ccc(Sc3cnc(N4CCC5(CC4)Cn4nccc4[C@H]5N)cn3)c(F)c2n1 [Example 83, (S)-1-(5-((7-fluoro-2-methyl-2H-indazol-6-yl)thio)pyrazin-2-yl)-4′H,6′H-spiro[piperidine-4,5′-pyrrolo[1,2-b]pyrazol]-4′-amine] |  |  | < 100 | ≤ 50 | 
Cn1cc2c(Cl)c(Sc3cnc(N4CCC5(CC4)Cn4nccc4[C@H]5N)cn3)ccc2n1 [Example 84, (S)-1-(5-((4-chloro-2-methyl-2H-indazol-5-yl)thio)pyrazin-2-yl)-4′H,6′H-spiro[piperidine-4,5′-pyrrolo[1,2-b]pyrazol]-4′-amine] |  |  | < 100 | ≤ 50 | 
